Data reported in patent US20230027929A1, “MrgprX2 Antagonists and Uses Thereof” (Dermira, Inc., priority 2019, published 2023).

target: T1, hMrgpMRGPRX2 (Homo sapiens, UniProt Q96LB1); assay: FLIPR intracellular calcium mobilization, antagonist activity in recombinant hMrgpMRGPRX2 expressing cells; assay type: cell-based; settings: read-out: Human MrgprX2 Antagonist pIC50 (converted)
T1 construct: expressed in transfected cells
T1 sequence (Q96LB1 1-330): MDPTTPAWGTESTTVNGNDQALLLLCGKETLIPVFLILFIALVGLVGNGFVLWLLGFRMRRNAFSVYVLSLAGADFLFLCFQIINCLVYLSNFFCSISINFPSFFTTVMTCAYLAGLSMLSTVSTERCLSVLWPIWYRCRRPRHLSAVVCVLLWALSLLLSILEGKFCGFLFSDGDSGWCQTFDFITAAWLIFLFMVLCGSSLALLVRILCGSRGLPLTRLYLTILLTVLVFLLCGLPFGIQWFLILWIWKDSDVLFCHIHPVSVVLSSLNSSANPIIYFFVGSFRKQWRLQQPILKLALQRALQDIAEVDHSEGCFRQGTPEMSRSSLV
Procedure, shortened: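 Antagonist activity was read as inhibition of intracellular calcium mobilization (FLIPR) in recombinant cells expressing human MrgprX2. Potency was also checked in LAD-2 human mast cells with endogenous receptor, and orthologue activity in cells expressing mouse MrgprB2, mouse MrgprA1, and gerbil, Chinese hamster and cynomolgus orthologues.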

Row | IC50 [nM] | Compound
1 | 31.6 | CCN(C[C@@H](O)C(F)(F)F)C(=O)Nc1cnc(Oc2cc(F)cc(F)c2)cn1 [Compound E236]
2 | 14.1 | CCN(C[C@@H](O)C(F)(F)F)C(=O)Nc1cc(Oc2ccc(F)cc2F)ccn1 [Compound E159]
3 | 245 | Cc1cnc(NC(=O)N(C)C[C@@H](O)C(F)(F)F)cc1Oc1ccc(F)c(F)c1 [Compound E153]
4 | 6310 | O=C(Nc1ccc(Oc2ccc(F)c(F)c2)cn1)C1CCOC1 (stereo not drawn) [Compound E037]
5 | 200 | CC(C)C(=O)Nc1cc(Oc2cc(F)cc(F)c2)ccn1 [Compound E143, N-[4-(3,5-difluorophenoxy)-2-pyridyl]-2-methyl-propanamide]
6 | 1910 | CC1(C)CC1C(=O)Nc1ccc(Oc2ccnc(F)c2)cn1 (stereo not drawn) [Compound E072]
7 | 1580 | CC(C)C(=O)Nc1ccc(Oc2cc(F)cc(C#N)c2)cn1 [Compound E021]
8 | 316 | COc1cccc(-c2ccc(NC(=O)C(C)C)nc2)c1 [Compound E171]
9 | 5010 | CC1(C(=O)Nc2ccc(Oc3ccc(F)c(F)c3)cn2)CCOC1 (stereo not drawn) [Compound E036]
10 | 1.29 | CCN(C[C@@H](O)C(F)(F)F)C(=O)Nc1cc(Oc2cccc(F)c2)ccn1 [Compound E154]
11 | 251 | CC(C)C(=O)Nc1ccc(-c2ccccc2)cn1 [Compound E164, 2-methyl-N-(5-phenyl-2-pyridyl)propanamide]
12 | 316 | CC(C)C(=O)Nc1cnc(Oc2cc(F)cc(F)c2)cn1 [Compound E218]
13 | 2510 | C[C@H](O)CN(C)C(=O)Nc1ccc(-c2cc(F)cc(F)c2)cn1 [Compound E191, 3-[5-(3,5-difluorophenyl)-2-pyridyl]-1-[(2S)-2-hydroxypropyl]-1-methyl-urea]
14 | 1580 | C[C@H](O)CN(C)C(=O)Nc1ccc(Oc2cccc(F)c2)cn1 [Compound E103]
15 | 2140 | CCN(C[C@@H](O)C(F)(F)F)C(=O)Nc1cnc(Oc2cccc(C#N)c2F)cn1 [Compound E246]
16 | 7940 | CC(C)C(=O)Nc1cc(-c2ccccc2)ccn1 [Compound E168]
17 | 95.5 | CC1(C)CC1C(=O)Nc1cnc(-c2cc(F)cc(F)c2)cn1 (stereo not drawn) [Compound E228, N-[5-(3,5-difluorophenyl)pyrazin-2-yl]-2,2-dimethyl-cyclopropanecarboxamide]
18 | 200 | O=C(Nc1ccc(Oc2ccc(F)c(F)c2)cn1)C1CC1 [Compound E034]
19 | 57.5 | CN(C[C@@H](O)C(F)(F)F)C(=O)Nc1ccc(Oc2ccc(F)c(F)c2)cn1 [Compound E111]
20 | 120 | CCN(C[C@@H](O)C(F)(F)F)C(=O)Nc1ccc(Oc2cccc(F)c2C#N)cn1 [Compound E128]
21 | 63.1 | CC(C)C(=O)Nc1ccc(Oc2cccc(F)c2)cn1 [Compound E004]
22 | 13.2 | CN(C[C@@H](O)C(F)(F)F)C(=O)Nc1cnc(Oc2ccc(F)cc2F)cn1 [Compound E255]
23 | 263 | CN(C[C@@H](O)C(F)(F)F)C(=O)Nc1cc(Oc2ccc(F)c(F)c2)ccn1 [Compound E152]
24 | 25.1 | CCN(C[C@@H](O)C(F)(F)F)C(=O)Nc1cc(Oc2ccc(F)cc2)ccn1 [Compound E155]
25 | 110 | CCN(C[C@@H](O)C(F)(F)F)C(=O)Nc1cnc(Oc2ccc(F)c(F)c2)cn1 [Compound E240]
26 | 3.63 | CCN(C[C@@H](O)C(F)(F)F)C(=O)Nc1cc(Oc2ccccc2F)ccn1 [Compound E151]

Row | IC50 [nM] | Compound
27 | 1200 | CCN(C[C@@H](O)C(F)(F)F)C(=O)Nc1ccc(-c2cc(F)cc(C#N)c2)cn1 [Compound E192]
28 | 6610 | CC1(C)CC1C(=O)Nc1cnc(-c2cccc(F)c2F)cn1 (stereo not drawn) [Compound E229]
29 | 26.9 | CCN(C[C@@H](O)C(F)(F)F)C(=O)Nc1cnc(Oc2c(F)cccc2F)cn1 [Compound E244]
30 | 3.98 | CC1(C)C[C@@H]1C(=O)Nc1ccc(Oc2ccc(F)c(F)c2)cn1 [Compound E043]
31 | 50.1 | CCN(C[C@@H](O)C(F)(F)F)C(=O)Nc1ccc(Oc2ccc(F)cc2)cn1 [Compound E118]
32 | 6310 | O=C(Nc1ccc(Oc2ccc(F)c(F)c2)cn1)[C@@H]1CCCO1 [Compound E055]
33 | 19.1 | CCN(C[C@@H](O)C(F)(F)F)C(=O)Nc1cc(Oc2cncc(F)c2)ccn1 [Compound E162, 1-ethyl-3-[4-[(5-fluoro-3-pyridyl)oxy]-2-pyridyl]-1-[(2R)-3,3,3-trifluoro-2-hydroxy-propyl]urea]
34 | 79.4 | CC(C)(C)C(=O)Nc1ccc(Oc2ccc(F)c(F)c2)cn1 [Compound E033]
35 | 347 | CCN(C[C@@H](O)C(F)(F)F)C(=O)Nc1cnc(Oc2ccc(C#N)cc2F)cn1 [Compound E256]
36 | 50.1 | CC1(C)CC1C(=O)Nc1ccc(-c2cc(F)cc(C#N)c2)cn1 (stereo not drawn) [Compound E188]
37 | 10000 | CC(C)C(=O)Nc1ccc(Oc2ccnc(F)c2)cn1 [Compound E022]
38 | 14.8 | CCN(C[C@@H](O)C(F)(F)F)C(=O)Nc1cnc(Oc2ccc(Cl)cc2F)cn1 [Compound E257]
39 | 58.9 | CN(C[C@@H](O)C(F)(F)F)C(=O)Nc1cnc(Oc2cccc(F)c2F)cn1 [Compound E243]
40 | 257 | CC1(C)CCN(c2ccc(Oc3ccc(F)c(F)c3)cn2)C1=O [Compound E285, 1-[5-(3,4-difluorophenoxy)-2-pyridyl]-3,3-dimethyl-pyrrolidin-2-one]
41 | 87.1 | CC1(C)CC1C(=O)Nc1ccc(N2CCCC2)cn1 (stereo not drawn) [Compound E098]
42 | 240 | NS(=O)(=O)N1CCC[C@@H]1C(=O)Nc1ccc(Oc2cc(F)cc(F)c2)cn1 [Compound E279]
43 | 158 | CCN(C[C@@H](O)C(F)(F)F)C(=O)Nc1ccc(Oc2c(F)cccc2C#N)cn1 [Compound E136]
44 | 1780 | CC1(C)CC(=O)N(c2ccc(Oc3ccc(F)c(F)c3)cn2)C1 [Compound E284, 1-[5-(3,4-difluorophenoxy)-2-pyridyl]-4,4-dimethyl-pyrrolidin-2-one]
45 | 708 | Cc1nc(NC(=O)N(C)C[C@@H](O)C(F)(F)F)ccc1Oc1ccc(F)c(F)c1 [Compound E121]
46 | 1910 | CC(C)(C#N)CC(=O)Nc1ccc(Oc2ccc(F)c(F)c2)cn1 [Compound E069]
47 | 316 | COc1ccc(-c2ccc(NC(=O)C(C)C)nc2)cc1 [Compound E172]
48 | 158 | Cc1nc(NC(=O)C2CC2(C)C)ccc1Oc1ccc(F)c(F)c1 (stereo not drawn) [Compound E054]
49 | 30.9 | CCN(C[C@@H](O)C(F)(F)F)C(=O)Nc1cnc(Oc2ccc(F)cc2C#N)cn1 [Compound E254]
50 | 380 | CCN(C[C@@H](OC)C(F)(F)F)C(=O)Nc1cnc(Oc2ccc(F)cc2F)cn1 [Compound E261]
51 | 126 | CC(C)N(C)C(=O)Nc1ccc(Oc2ccc(F)c(F)c2)cn1 [Compound E104]

Row | Compound | IC50 [nM]
52 | CC1(C)C(C(=O)Nc2ccc(CN3CCCC3)cn2)C1(C)C [Compound E270, 2,2,3,3-tetramethyl-N-[5-(pyrrolidin-1-ylmethyl)-2-pyridyl]cyclopropanecarboxamide] | 5250
53 | CC1(C)C(C(=O)Nc2ccc(-n3cncn3)cn2)C1(C)C [Compound E092] | 8130
54 | CN(C)c1ccc(NC(=O)C2C(C)(C)C2(C)C)nc1 [Compound E201, N-[5-(dimethylamino)-2-pyridyl]-2,2,3,3-tetramethyl-cyclopropanecarboxamide] | 162
55 | COc1ccc(NC(=O)C2C(C)(C)C2(C)C)nc1 [Compound E212] | 20
56 | CC1(C)C(C(=O)Nc2ccc(-c3cn[nH]c3)cn2)C1(C)C [Compound E175] | 2510
57 | CC1(C)C(C(=O)Nc2cc(C(F)(F)F)ccn2)C1(C)C [Compound E203] | 1580
58 | CC1(C)C(C(=O)Nc2ccc(C3=COCC3)cn2)C1(C)C [Compound E187] | 14.5
59 | CC1(C)C(C(=O)Nc2ccc(F)cn2)C1(C)C [Compound E211] | 1.26
60 | CC1(C)C(C(=O)Nc2ccc(-n3ccc(C#N)n3)cn2)C1(C)C [Compound E088] | 28.2
61 | CC1(C)C(C(=O)Nc2ccc(N3CCC(O)C3)cn2)C1(C)C (stereo not drawn) [Compound E070] | 1050
62 | CC1(C)C(C(=O)Nc2ccc(C3CCOC3)cn2)C1(C)C (stereo not drawn) [Compound E186] | 186
63 | CC1(C)C(C(=O)Nc2ccc(-c3ncon3)cn2)C1(C)C [Compound E271, 2,2,3,3-tetramethyl-N-[5-(1,2,4-oxadiazol-3-yl)-2-pyridyl]cyclopropanecarboxamide] | 31.6
64 | CC1(C)C(C(=O)Nc2ccc(Oc3cccnc3)cn2)C1(C)C [Compound E066] | 30.9
65 | CC1(C)C(C(=O)Nc2ccc(Oc3ccc(F)c(F)c3)cn2)C1(C)C [Compound E025] | 2.51
66 | CC1(C)C(C(=O)Nc2cc(Oc3cncc(F)c3)ccn2)C1(C)C [Compound E147, N-[4-[(5-fluoro-3-pyridyl)oxy]-2-pyridyl]-2,2,3,3-tetramethyl-cyclopropanecarboxamide] | 7.94
67 | CC1(C)C(C(=O)Nc2ccc(-n3ccc(F)n3)cn2)C1(C)C [Compound E091] | 8.13
68 | Cn1cc(Oc2cnc(NC(=O)C3C(C)(C)C3(C)C)cn2)cn1 [Compound E221] | 28.8
69 | CC1(C)C(C(=O)Nc2ccc(Oc3ccc(C#N)cc3)cn2)C1(C)C [Compound E058] | 31.6
70 | COc1cnc(NC(=O)C2C(C)(C)C2(C)C)cn1 [Compound E215] | 200
71 | CC1(C)C(C(=O)Nc2ccc(OCc3cncc(F)c3)cn2)C1(C)C [Compound E086] | 204
72 | CC1(C)C(C(=O)Nc2ccc(OCCO)cn2)C1(C)C [Compound E082, N[5-(2-hydroxyethoxy)pyridin-2-yl]-2,2,3,3-tetramethylcyclopropane-l-carboxamide] | 4370
